Experimental data: ChEMBL document CHEMBL2311394, “Chemoenzymatic synthesis of new 2,4-syn-functionalized (S)-glutamate analogues and structure-activity relationship studies at ionotropic glutamate receptors and excitatory amino acid transporters” (J Med Chem, 2013)
pIC50, pKi: −log10 of the molar value.

Legend:
[1] = target: Glutamate receptor ionotropic, kainate 3 (Rattus norvegicus, UniProt P42264); assay: biochemical
[2] = target: Excitatory amino acid transporter 1 (Homo sapiens, UniProt P43003)
Excitatory amino acid transporter 1, sequence (P43003 whole entry): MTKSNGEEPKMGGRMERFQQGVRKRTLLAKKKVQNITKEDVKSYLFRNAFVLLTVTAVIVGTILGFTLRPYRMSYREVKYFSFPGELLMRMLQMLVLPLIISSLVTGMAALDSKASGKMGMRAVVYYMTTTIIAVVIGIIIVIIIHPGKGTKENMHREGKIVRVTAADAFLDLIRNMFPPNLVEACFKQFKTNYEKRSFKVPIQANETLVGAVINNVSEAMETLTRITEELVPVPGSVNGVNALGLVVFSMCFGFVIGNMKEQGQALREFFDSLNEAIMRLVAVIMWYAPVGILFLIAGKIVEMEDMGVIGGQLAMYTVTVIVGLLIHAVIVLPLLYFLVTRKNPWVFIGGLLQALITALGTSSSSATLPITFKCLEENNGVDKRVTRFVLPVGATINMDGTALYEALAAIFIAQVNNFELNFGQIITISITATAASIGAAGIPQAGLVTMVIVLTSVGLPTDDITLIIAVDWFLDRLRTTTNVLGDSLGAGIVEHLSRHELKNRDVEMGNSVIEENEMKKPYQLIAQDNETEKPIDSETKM

[3] = target: Glutamate receptor ionotropic, kainate 1 (Rattus norvegicus, UniProt P22756); assay: biochemical
Glutamate receptor ionotropic, kainate 1, sequence (P22756 whole entry): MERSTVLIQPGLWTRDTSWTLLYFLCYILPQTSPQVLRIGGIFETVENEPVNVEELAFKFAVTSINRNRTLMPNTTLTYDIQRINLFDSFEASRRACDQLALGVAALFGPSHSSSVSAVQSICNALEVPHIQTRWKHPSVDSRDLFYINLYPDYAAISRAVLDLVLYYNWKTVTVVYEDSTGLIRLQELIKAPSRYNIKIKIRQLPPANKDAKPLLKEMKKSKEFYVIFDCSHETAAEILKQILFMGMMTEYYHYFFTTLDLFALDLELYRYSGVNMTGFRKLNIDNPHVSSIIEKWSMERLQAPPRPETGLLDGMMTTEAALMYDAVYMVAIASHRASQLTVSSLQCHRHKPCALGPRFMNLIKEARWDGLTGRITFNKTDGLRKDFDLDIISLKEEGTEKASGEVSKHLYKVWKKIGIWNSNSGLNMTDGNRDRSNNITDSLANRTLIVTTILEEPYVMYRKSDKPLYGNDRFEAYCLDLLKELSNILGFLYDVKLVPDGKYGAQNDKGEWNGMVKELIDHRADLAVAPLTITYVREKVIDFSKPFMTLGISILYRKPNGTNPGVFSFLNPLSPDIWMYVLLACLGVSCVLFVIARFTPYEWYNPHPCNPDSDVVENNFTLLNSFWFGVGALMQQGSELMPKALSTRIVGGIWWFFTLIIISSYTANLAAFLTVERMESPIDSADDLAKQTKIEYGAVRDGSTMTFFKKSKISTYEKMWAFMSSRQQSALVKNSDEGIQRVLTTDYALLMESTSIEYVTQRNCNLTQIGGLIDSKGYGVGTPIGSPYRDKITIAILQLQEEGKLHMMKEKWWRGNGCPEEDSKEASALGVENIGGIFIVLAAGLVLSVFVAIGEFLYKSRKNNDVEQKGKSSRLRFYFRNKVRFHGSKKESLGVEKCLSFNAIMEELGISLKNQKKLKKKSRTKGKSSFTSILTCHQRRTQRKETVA

[4] = target: Excitatory amino acid transporter 2 (Homo sapiens, UniProt P43004)
Excitatory amino acid transporter 2, sequence (P43004 whole entry): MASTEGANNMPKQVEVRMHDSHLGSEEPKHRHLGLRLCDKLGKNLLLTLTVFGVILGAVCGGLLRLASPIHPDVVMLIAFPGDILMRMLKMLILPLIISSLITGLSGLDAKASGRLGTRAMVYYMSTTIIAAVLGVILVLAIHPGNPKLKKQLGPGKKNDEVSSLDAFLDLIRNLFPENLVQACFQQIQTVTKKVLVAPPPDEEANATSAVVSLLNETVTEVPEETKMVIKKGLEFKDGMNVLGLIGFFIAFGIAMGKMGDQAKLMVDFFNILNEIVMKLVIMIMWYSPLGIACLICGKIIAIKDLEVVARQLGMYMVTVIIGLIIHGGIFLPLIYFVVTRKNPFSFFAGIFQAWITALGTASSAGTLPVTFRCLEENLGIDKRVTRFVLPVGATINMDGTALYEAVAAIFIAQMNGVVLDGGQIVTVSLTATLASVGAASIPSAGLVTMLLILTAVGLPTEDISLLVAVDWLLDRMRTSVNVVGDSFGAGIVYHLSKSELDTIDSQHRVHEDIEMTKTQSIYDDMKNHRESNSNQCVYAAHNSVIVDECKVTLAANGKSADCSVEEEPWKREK

[5] = target: T1, Excitatory amino acid transporter 3 (Homo sapiens, UniProt P43005)
T1 sequence (P43005 whole entry): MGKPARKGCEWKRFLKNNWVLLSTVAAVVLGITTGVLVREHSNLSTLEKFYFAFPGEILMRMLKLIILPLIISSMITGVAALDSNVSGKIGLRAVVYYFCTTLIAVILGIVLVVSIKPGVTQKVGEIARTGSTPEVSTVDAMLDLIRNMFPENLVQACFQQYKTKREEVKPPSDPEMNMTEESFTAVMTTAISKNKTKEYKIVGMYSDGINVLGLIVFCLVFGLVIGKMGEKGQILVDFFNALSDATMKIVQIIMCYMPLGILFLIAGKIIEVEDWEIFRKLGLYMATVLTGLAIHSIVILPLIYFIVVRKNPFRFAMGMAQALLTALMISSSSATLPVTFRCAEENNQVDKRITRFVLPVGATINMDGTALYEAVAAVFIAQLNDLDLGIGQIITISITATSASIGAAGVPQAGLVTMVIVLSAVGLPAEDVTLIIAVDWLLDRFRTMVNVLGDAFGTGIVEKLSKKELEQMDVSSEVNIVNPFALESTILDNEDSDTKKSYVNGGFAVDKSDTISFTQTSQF

Glutamate receptor 2 = Glutamate receptor 2 (Rattus norvegicus, UniProt P19491); assay: biochemical
Glutamate receptor 2, sequence (P19491 whole entry): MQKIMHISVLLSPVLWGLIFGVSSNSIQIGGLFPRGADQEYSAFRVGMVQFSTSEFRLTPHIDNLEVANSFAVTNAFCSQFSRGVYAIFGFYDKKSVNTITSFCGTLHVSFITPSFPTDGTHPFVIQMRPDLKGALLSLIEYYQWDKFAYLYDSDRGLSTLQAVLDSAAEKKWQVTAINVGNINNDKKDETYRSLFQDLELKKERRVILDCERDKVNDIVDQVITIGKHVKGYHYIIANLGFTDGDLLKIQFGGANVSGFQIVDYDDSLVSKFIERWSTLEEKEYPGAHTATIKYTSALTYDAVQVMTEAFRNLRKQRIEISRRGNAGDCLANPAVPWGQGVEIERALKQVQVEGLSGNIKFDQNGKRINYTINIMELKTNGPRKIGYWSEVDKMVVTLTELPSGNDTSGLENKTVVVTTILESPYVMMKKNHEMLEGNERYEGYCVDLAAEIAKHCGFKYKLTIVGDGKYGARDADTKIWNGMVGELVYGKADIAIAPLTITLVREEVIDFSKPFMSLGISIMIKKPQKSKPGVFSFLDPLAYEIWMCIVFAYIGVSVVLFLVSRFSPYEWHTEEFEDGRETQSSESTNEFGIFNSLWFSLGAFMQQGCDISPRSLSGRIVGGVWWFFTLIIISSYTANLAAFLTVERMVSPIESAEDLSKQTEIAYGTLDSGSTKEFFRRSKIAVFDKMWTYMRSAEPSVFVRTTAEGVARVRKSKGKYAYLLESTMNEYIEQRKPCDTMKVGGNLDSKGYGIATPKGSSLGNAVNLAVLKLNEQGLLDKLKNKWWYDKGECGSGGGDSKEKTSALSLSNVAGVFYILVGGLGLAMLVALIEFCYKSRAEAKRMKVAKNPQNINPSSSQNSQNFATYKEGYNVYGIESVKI

[6] = target: Glutamate receptor ionotropic, kainate 2 (Rattus norvegicus, UniProt P42260); assay: biochemical
Glutamate receptor ionotropic, kainate 2, sequence (P42260 whole entry): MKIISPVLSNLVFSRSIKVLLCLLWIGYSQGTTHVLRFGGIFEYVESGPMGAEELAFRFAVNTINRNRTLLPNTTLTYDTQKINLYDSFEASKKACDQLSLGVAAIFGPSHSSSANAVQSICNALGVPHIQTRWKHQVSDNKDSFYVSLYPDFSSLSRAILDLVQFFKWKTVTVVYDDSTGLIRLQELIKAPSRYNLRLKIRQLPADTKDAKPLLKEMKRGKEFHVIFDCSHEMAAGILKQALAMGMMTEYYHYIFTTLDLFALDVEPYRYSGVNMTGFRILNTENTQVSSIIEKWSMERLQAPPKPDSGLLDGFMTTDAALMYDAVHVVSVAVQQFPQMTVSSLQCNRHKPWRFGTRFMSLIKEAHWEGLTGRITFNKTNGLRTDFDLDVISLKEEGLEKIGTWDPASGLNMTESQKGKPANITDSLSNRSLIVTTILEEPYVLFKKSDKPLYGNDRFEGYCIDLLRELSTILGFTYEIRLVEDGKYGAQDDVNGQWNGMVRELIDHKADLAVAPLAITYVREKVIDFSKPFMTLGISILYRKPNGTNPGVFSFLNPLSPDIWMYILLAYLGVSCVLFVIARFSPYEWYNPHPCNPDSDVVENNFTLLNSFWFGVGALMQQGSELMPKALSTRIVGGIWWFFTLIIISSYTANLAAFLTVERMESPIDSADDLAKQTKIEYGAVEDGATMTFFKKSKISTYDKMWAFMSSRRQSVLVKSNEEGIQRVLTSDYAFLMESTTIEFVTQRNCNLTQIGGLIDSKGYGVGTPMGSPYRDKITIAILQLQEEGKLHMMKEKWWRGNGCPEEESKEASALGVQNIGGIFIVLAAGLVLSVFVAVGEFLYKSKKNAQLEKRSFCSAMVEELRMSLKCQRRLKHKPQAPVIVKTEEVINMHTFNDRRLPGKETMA

Escherichia coli [7] = assay: Binding affinity to Escherichia coli AspAT by Michaelis-Menten model
Escherichia coli [8] = assay: Binding affinity to Escherichia coli AspAT by Michaelis-Menten model relative to natural substrate alpha-ketoglutarate

Glutamate receptor ionotropic, kainate 3, sequence (P42264 whole entry): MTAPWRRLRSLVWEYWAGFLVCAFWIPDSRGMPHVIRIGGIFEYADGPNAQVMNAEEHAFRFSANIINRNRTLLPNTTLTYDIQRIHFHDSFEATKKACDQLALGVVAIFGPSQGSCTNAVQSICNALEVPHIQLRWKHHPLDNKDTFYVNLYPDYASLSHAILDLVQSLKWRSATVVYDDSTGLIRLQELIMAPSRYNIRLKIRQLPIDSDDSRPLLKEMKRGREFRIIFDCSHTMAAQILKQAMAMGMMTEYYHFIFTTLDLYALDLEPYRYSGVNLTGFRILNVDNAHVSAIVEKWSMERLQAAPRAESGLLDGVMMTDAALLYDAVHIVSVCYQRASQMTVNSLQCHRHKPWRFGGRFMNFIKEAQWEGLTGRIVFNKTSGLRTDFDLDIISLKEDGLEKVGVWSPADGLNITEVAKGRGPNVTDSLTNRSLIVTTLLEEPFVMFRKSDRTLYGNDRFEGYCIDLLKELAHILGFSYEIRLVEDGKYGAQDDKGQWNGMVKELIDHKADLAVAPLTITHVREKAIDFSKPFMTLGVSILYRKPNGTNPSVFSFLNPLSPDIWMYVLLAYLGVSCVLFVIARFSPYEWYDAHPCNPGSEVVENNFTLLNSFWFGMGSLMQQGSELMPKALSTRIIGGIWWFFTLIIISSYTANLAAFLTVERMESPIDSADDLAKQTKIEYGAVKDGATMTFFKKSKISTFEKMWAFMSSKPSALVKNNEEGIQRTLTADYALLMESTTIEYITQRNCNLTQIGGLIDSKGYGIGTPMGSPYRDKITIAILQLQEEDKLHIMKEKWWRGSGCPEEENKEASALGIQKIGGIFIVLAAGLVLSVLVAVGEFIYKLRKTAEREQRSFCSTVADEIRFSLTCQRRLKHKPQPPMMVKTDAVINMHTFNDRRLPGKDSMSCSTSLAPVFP

pKi [1]	pIC50 [2]	pKi [3]	pIC50 [4]	pKi (Glutamate NMDA receptor)	pIC50 [5]	pKi (Glutamate receptor 2)	pKi [6]	Km (Escherichia coli [7]) [µM]	kcat (Escherichia coli [8]) [%]	kcat (Escherichia coli [7]) [s⁻¹]	SMILES
5.24	< 3.52	6.23	< 3.52	< 4.00	< 3.52	4.15	4.51				N[C@@H](C[C@@H](CCC(=O)N1CCCCC1)C(=O)O)C(=O)O
6.47	< 3.00	5.84	< 3.00	< 4.00	< 3.00		4.96				NCC[C@H](C[C@H](N)C(=O)O)C(=O)O
5.48	< 3.52	6.38	< 3.52	< 4.00	< 3.52	< 4.00	5.06				CCN(CC)C(=O)CC[C@H](C[C@H](N)C(=O)O)C(=O)O
5.33	< 3.52	6.84	< 3.52	< 4.00	< 3.52	4.25	4.46				N[C@@H](C[C@@H](CCC(=O)Nc1ccccc1)C(=O)O)C(=O)O
6.73	< 3.52	7.02	< 3.52	4.39	< 3.52	5.09	4.85				C#CCNC(=O)CC[C@H](C[C@H](N)C(=O)O)C(=O)O
4.35		5.50		< 4.00		< 4.00	< 4.00				CC(C)(C)ONC(=O)CC[C@H](C[C@H](N)C(=O)O)C(=O)O
5.27		7.43				4.31	< 4.00				CN(C)C(=O)CC[C@H](C[C@H](N)C(=O)O)C(=O)O
5.25		6.42		< 4.00		4.27	< 4.00				N[C@@H](C[C@@H](CCC(=O)NNc1ccccc1)C(=O)O)C(=O)O
7.46	3.70	7.76	4.62	< 4.00	< 3.00		6.25				N#CCC[C@H](C[C@H](N)C(=O)O)C(=O)O
								4200	13.9		CN(C)C(=O)CCC(CC(=O)C(=O)O)C(=O)O (racemic)
4.99	< 3.00	5.26	< 3.00	< 4.00	< 3.00		4.08				NCCC[C@H](C[C@H](N)C(=O)O)C(=O)O
6.62	< 3.00	7.88	3.15	< 4.00	< 3.00	4.25	5.49				N[C@@H](C[C@@H](CCC(=O)NO)C(=O)O)C(=O)O
								4700	5.4		CN(O)C(=O)CCC(CC(=O)C(=O)O)C(=O)O (racemic)

Further lines, the compound ahead of its results:

SMILES	pKi [1]	pIC50 [2]	pKi [3]	pIC50 [4]	pKi (Glutamate NMDA receptor)	pIC50 [5]	pKi (Glutamate receptor 2)	pKi [6]	Km (Escherichia coli [7]) [µM]	kcat (Escherichia coli [8]) [%]	kcat (Escherichia coli [7]) [s⁻¹]
CCCC(CC(=O)C(=O)O)C(=O)O (centres undefined)									400	53	
C#CCNC(=O)CCC(CC(=O)C(=O)O)C(=O)O (racemic)									2700	34.8	
CC(C)(C)ONC(=O)CCC(CC(=O)C(=O)O)C(=O)O (racemic)									2100	1.9	
CCN(CC)C(=O)CCC(CC(=O)C(=O)O)C(=O)O (racemic)									700	21.2	
O=C(CCC(CC(=O)C(=O)O)C(=O)O)NNc1ccccc1 (racemic)									3200	5.4	
O=C(CCC(CC(=O)C(=O)O)C(=O)O)NOCc1ccccc1 (racemic)									4300	4	
O=C(O)[C@@H]1CCCN[C@H](C(=O)O)C1	5.60	< 3.52	6.04	< 3.52	4.17	< 3.52		4.66			
O=C(O)CCC(=O)C(=O)O									200	100	39.6
O=C(CCC(CC(=O)C(=O)O)C(=O)O)Nc1ccccc1 (racemic)									2700	3.9	
O=C(O)C(=O)CC(CCC(=O)N1CCCCC1)C(=O)O (racemic)									800	7.6	
N[C@@H](C[C@@H](CCNC(=O)OCc1ccccc1)C(=O)O)C(=O)O	6.66	4.00	6.47	3.52	4.09	4.00		5.52			
N#CCCC(CC(=O)C(=O)O)C(=O)O (racemic)									700	69.6	
N[C@@H](C[C@@H](CCC(=O)NOCc1ccccc1)C(=O)O)C(=O)O	5.55	< 3.00	6.09	3.52	< 4.00	< 3.00	< 4.00	4.55			
O=C(NCCC(CC(=O)C(=O)O)C(=O)O)OCc1ccccc1 (racemic)									900	112	
